Data as given in patent US20120172359A1 (NOVARTIS AG, priority 2010, published 2012).
pIC50: −log10 of the molar value. Counter-ions that a name gives are not always drawn.

Molecular target: Human BACE-1 (Homo sapiens, UniProt P56817)
Assay: Test 1: Inhibition of Human BACE-1
Assay type: biochemical
Conditions: Test 1; recombinant BACE-1 (extracellular domain), acetate buffer pH 4.5, 1 hour with test compound at room temperature, fluorescence-quenched peptide substrate; read-out: Bace IC50

Chain of Human BACE-1 (P56817 46-457 limits assumed): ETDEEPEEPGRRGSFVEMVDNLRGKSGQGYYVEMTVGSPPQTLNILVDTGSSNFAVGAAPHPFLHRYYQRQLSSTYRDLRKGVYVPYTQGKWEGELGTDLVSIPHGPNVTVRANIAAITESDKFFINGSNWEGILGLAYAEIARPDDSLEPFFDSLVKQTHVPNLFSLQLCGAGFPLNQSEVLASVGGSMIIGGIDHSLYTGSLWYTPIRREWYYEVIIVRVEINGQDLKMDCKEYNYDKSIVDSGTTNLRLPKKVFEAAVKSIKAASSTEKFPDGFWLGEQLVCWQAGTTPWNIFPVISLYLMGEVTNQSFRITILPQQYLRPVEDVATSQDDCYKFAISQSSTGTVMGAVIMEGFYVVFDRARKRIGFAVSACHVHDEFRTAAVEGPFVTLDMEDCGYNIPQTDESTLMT

Row | SMILES | pIC50
1 | Cn1ccnc1C(=O)Nc1ccc(F)c([C@]2(C(F)F)COCC(N)=N2)c1 [Example 133, 1-Methyl-1H-imidazole-2 carboxylic acid [3-((R)-5-amino-3 difluoromethyl-3,6-dihydro-2H [1,4]oxazin-3-yl)-4-fluoro-phenyl]-amide hydrochloride] | 6.00
2 | NC1=N[C@@](c2cc(NC(=O)c3ccc(O)nn3)ccc2F)(C(F)F)COC1 [Example 134, 6-Hydroxy-pyridazine-3-carboxylic acid [3-((R)-5-amino-3-difluoromethyl-3,6-dihydro-2H-[1,4]oxazin-3-yl)-4-fluoro-phenyl]-amide hydrochloride] | 6.59
3 | COCCOc1cnc(C(=O)Nc2ccc(F)c([C@]3(C(F)F)COCC(N)=N3)c2)cn1 [Example 135, 5-(2-Methoxy-ethoxy)-pyrazine-2-carboxylic acid [3-((R)-5-amino-3-difluoromethyl-3,6-dihydro-2H-[1,4]oxazin-3-yl)-4-fluoro-phenyl]-amide hydrochloride] | 7.35
4 | NC1=N[C@@](c2cc(NC(=O)c3cnc(OCCF)cn3)ccc2F)(C(F)F)COC1 [Example 136, 5-(2-Fluoro-ethoxy)-pyrazine-2-carboxylic acid [3-((R)-5-amino-3-difluoromethyl-3,6-dihydro-2H-[1,4]oxazin-3-yl)-4-fluoro-phenyl]-amide hydrochloride] | 6.89
5 | NC1=N[C@@](c2cc(NC(=O)c3ccc(Cl)cn3)ccc2F)(C(F)F)COC1 [Example 137, 5-Chloro-pyridine-2-carboxylic acid [3-((R)-5-amino-3-difluoromethyl-3,6-dihydro-2H-[1,4]oxazin-3-yl)-4-fluoro-phenyl]-amide hydrochloride] | 7.52
6 | NC1=N[C@@](c2cc(NC(=O)c3ccc(OC(F)F)cn3)ccc2F)(C(F)F)COC1 [Example 138, 5-Difluoromethoxy-pyridine-2-carboxylic acid [3-((R)-5-amino-3-difluoromethyl-3,6-dihydro-2H-[1,4]oxazin-3-yl)-4-fluoro-phenyl]-amide hydrochloride] | 7.38
7 | NC1=N[C@@](c2cc(NC(=O)c3ccc(OCF)cn3)ccc2F)(C(F)F)COC1 [Example 139, 5-Fluoromethoxy-pyridine-2-carboxylic acid [3-((R)-5-amino-3-difluoromethyl-3,6-dihydro-2H-[1,4]oxazin-3-yl)-4-fluoro-phenyl]-amide] | 7.12
8 | NC1=N[C@@](c2cc(NC(=O)c3ncc(Cl)cc3F)ccc2F)(C(F)F)COC1 [Example 140, 5-Chloro-3-fluoro-pyridine-2-carboxylic acid [3-((R)-5-amino-3-difluoromethyl-3,6-dihydro-2H-[1,4]oxazin-3-yl)-4-fluoro-phenyl]-amide] | 7.37
9 | NC1=N[C@@](c2cc(NC(=O)c3cnc(Cl)cn3)ccc2F)(C(F)F)COC1 [Example 141, 5-Chloro-pyrazine-2-carboxylic acid [3-((R)-5-amino-3-difluoromethyl-3,6-dihydro-2H-[1,4]oxazin-3-yl)-4-fluoro-phenyl]-amide] | 7.48
10 | Cc1cc(C(=O)Nc2ccc(F)c([C@]3(C(F)F)COCC(N)=N3)c2)n[nH]1 [Example 142, 5-Methyl-1H-pyrazole-3-carboxylic acid [3-((R)-5-amino-3-difluoromethyl-3,6-dihydro-2H-[1,4]oxazin-3-yl)-4-fluoro-phenyl]-amide hydrochloride] | 6.09
11 | Cc1ccc(C(=O)Nc2ccc(F)c([C@]3(C(F)F)COCC(N)=N3)c2)nc1 [Example 143, 5-Methyl-pyridine-2-carboxylic acid [3-((R)-5-amino-3-difluoromethyl-3,6-dihydro-2H-[1,4]oxazin-3-yl)-4-fluoro-phenyl]-amide hydrochloride] | 6.96
12 | NC1=N[C@@](c2cc(NC(=O)c3cnc(O)cn3)ccc2F)(C(F)F)COC1 [Example 145, 5-Hydroxy-pyrazine-2-carboxylic acid [3-((R)-5-amino-3-difluoromethyl-3,6-dihydro-2H-[1,4]oxazin-3-yl)-4-fluoro-phenyl]-amide hydrochloride] | 6.47
13 | COc1cnc(C(=O)Nc2ccc(F)c([C@]3(C(F)F)COCC(N)=N3)c2)cn1 [Example 146, 5-Methoxy-pyrazine-2-carboxylic acid [3-((R)-5-amino-3-difluoromethyl-3,6-dihydro-2H-[1,4]oxazin-3-yl)-4-fluoro-phenyl]-amide hydrochloride] | 7.00
14 | Cc1nc(C(=O)Nc2ccc(F)c([C@]3(C(F)F)COCC(N)=N3)c2)cs1 [Example 148, 2-Methyl-thiazole-4-carboxylic acid [3-((R)-5-amino-3-difluoromethyl-3,6-dihydro-2H-[1,4]oxazin-3-yl)-4-fluoro-phenyl]-amide hydrochloride] | 6.03
15 | Cc1cnc(C(=O)Nc2ccc(F)c([C@]3(C(F)F)COCC(N)=N3)c2)s1 [Example 149, 5-Methyl-thiazole-2-carboxylic acid [3-((R)-5-amino-3-difluoromethyl-3,6-dihydro-2H-[1,4]oxazin-3-yl)-4-fluoro-phenyl]-amide hydrochloride] | 6.15
16 | Cn1ccc(C(=O)Nc2ccc(F)c([C@]3(C(F)F)COCC(N)=N3)c2)n1 [Example 150, 1-Methyl-1H-pyrazole-3-carboxylic acid [3-((R)-5-amino-3-difluoromethyl-3,6-dihydro-2H-[1,4]oxazin-3-yl)-4-fluoro-phenyl]-amide hydrochloride] | 6.54
17 | Cn1cc([N+](=O)[O-])c(C(=O)Nc2ccc(F)c([C@]3(C(F)F)COCC(N)=N3)c2)n1 [Example 151, 1-Methyl-4-nitro-1H-pyrazole-3-carboxylic acid [3-((R)-5-amino-3-difluoromethyl-3,6-dihydro-2H-[1,4]oxazin-3-yl)-4-fluoro-phenyl]-amide hydrochloride] | 5.92
18 | C[C@@]1(c2cc(NC(=O)c3ncc(Cl)cc3N)ccc2F)CO[C@@](C)(C(F)(F)F)C(N)=N1 [Example 153, 3-Amino-5-chloro-pyridine-2-carboxylic acid [3-((3R,6R)-5-amino-3,6-dimethyl-6-trifluoro-methyl-3,6-dihydro-2H-[1,4]oxazin-3-yl)-4-fluoro-phenyl]amide] | 8.10
19 | CC1(c2cc(NC(=O)c3ncc(C(F)(F)F)cc3Cl)ccc2F)N=C(N)COCC1(F)F (stereo not drawn) [Example 154, 3-Chloro-5-trifluoromethyl-pyridine-2-carboxylic acid [3-(3-amino-6,6-difluoro-5-methyl-2,5,6,7-tetrahydro-[1,4]oxazepin-5-yl)-4-fluoro-phenyl]-amide] | 6.92
20 | COc1cc(Br)cnc1C(=O)Nc1ccc(F)c(C2(C)N=C(N)COCC2(F)F)c1 (stereo not drawn) [Example 155, 5-Bromo-3-methoxy-pyridine-2-carboxylic acid [3-(3-amino-6,6-difluoro-5-methyl-2,5,6,7-tetrahydro-[1,4]oxazepin-5-yl)-4 fluoro-phenyl]-amide] | 6.74
21 | CC1(c2cc(NC(=O)c3ccc(C#N)cn3)ccc2F)N=C(N)COCC1(F)F (stereo not drawn) [Example 156, 5-Cyano-pyridine-2-carboxylic acid [3-(3-amino-6,6-difluoro-5 methyl-2,5,6,7-tetrahydro[1,4]oxazepin-5-yl)-4 fluoro-phenyl]-amide] | 7.47
22 | NC1=N[C@@](c2cc(NC(=O)c3cc4cncnc4[nH]3)ccc2F)(C(F)F)COC1 [Example 157, 7H-Pyrrolo[2,3-d]pyrimidine-6-carboxylic acid [3-((R)-5-amino-3-difluoromethyl-3,6-dihydro-2H-[1,4]oxazin-3-yl)-4-fluoro-phenyl]-amide] | 5.28
23 | COCCOc1cnc(C(=O)Nc2ccc(F)c([C@]3(C(F)F)COCC(N)=N3)c2)c(N)n1 [Example 158, 3-Amino-5-(2-methoxy-ethoxy)-pyrazine-2-carboxylic acid [3-((R)-5-amino-3-difluoromethyl-3,6-dihydro-2H-[1,4]oxazin-3-yl)-4-fluoro-phenyl]amide] | 7.74
24 | CCc1ccc(C(=O)Nc2ccc(F)c([C@]3(C(F)F)COCC(N)=N3)c2)nc1 [Example 159] | 6.89
25 | NC1=N[C@@](c2cc(NC(=O)c3ncc(Cl)cc3N)ccc2F)(C(F)F)COC1 [Example 160, 3-Amino-5-chloro-pyridine-2-carboxylic acid [3-((R)-5-amino-3-difluoromethyl-3,6-dihydro-2H-[1,4]oxazin-3-yl)-4-fluoro-phenyl]-amide] | 7.92
26 | COc1cnc(C(=O)Nc2ccc(F)c([C@]3(C(F)F)COCC(N)=N3)c2)c(Cl)c1 [Example 161, 3-Chloro-5-methoxy-pyridine-2-carboxylic acid [3-((R)-5-amino-3-difluoromethyl-3,6-dihydro-2H-[1,4]oxazin-3-yl)-4-fluoro-phenyl]-amide] | 7.18
27 | NC1=N[C@@](c2cc(NC(=O)c3ccc(=O)[nH]c3)ccc2F)(C(F)F)COC1 [Example 162, 6-Oxo-1,6-dihydro-pyridine-3-carboxylic acid [3-((R)-5-amino-3-difluoromethyl-3,6-dihydro-2H-[1,4]oxazin-3-yl)-4-fluoro-phenyl]-amide] | 5.07
28 | NC1=N[C@@](c2cc(NC(=O)c3cc4cccn4cn3)ccc2F)(C(F)F)COC1 [Example 163, Pyrrolo[1,2-c]pyrimidine-3-carboxylic acid [3-((R)-5-amino-3-difluoromethyl-3,6-dihydro-2H-[1,4]oxazin-3-yl)-4-fluoro-phenyl]-amide] | 6.17
29 | NC1=N[C@@](c2cc(NC(=O)c3ncc(Br)cc3N)ccc2F)(C(F)F)COC1 [Example 165, 3-Amino-5-bromo-pyridine-2-carboxylic acid [3-((R)-5-amino-3-difluoromethyl-3,6-dihydro-2H-[1,4]oxazin-3-yl)-4-fluoro-phenyl]-amide] | 8.10
30 | CCn1ccnc1C(=O)Nc1ccc(F)c([C@]2(C(F)F)COCC(N)=N2)c1 [Example 166, 1-Ethyl-1H-imidazole-2-carboxylic acid [3-((R)-5-amino-3-difluoromethyl-3,6-dihydro-2H-[1,4]oxazin-3-yl)-4-fluoro-phenyl]amide] | 5.92
